Like-named read-outs stand apart in the source and are kept apart here.
Columns and labels:
S1R in STHdh^Q7/7 cells [1] = target: S1R in STHdh^Q7/7 cells (Mus musculus, UniProt O55242); conditions: 20 h; P (150 μM vs. 0)<0.05
Procedure: (§1) Transfections of HEK 293 cells were carried out according to the calcium phosphate method. STHdh^Q7/7 cells are a murine striatal cell line with a stable knock-in of the full-length wild type (WT) human Htt containing a polyglutamine stretch of 7 glutamines (Trettel et al. 2000). […] No cell line used is listed as a commonly misidentified cell line. Cell lines were not authenticated. To reduce any risk of cross-contamination they were grown for a limited number of passages. Transient transfections of NIH 3T3 and STHdh^Q7/7 cells were performed using an MP-100 Microporator (Digital Bio) or ViaFect™ Transfection Reagent (Cat.No. E4981) (Promega), according to the manufacturer's protocols.
(§2) Cells were lysed in PBS containing 1% Triton X-100, 0.5% sodium deoxycholate with protease inhibitors and centrifuged to pellet insoluble aggregates, debris and nuclei. Phosphatase inhibitor cocktail 2 and 3 and 10 mM […] phosphate were added to the lysis buffer to inhibit phosphatases for detection of phosphorylated proteins. Supernatants were separated from pellets and incubated in loading buffer for 5 min at 100° C., pellets were incubated for 10 min at 100° C. After SDS-PAGE and transfer to nitrocellulose membrane, blocking was done in 5% low-fat milk and 0.1% Tween-20 in PBS for 1 h. Incubation with the primary antibody was overnight at 4° C. and after three washes in 0.1% Tween-20 in PBS, incubation with the appropriate secondary antibody was for 1 h at room temperature. After washing, enhanced chemiluminescence assay was performed and the membrane was exposed and quantified in a Bio-Rad ChemiDocXRS Imaging System (Bio-Rad, Hercules, CA).
(§3) Briefly, cells grown for 24 h after transfection on coverslips in 24-well plates were fixed with 3% paraformaldehyde, followed by blocking with 50 mM glycine in PBS and normal goat IgG in PBS/2% BSA. The cells were incubated with primary antibodies for 1 h, washed and incubated for 30 min with secondary antibodies, followed by washes. Nuclei were stained with 4′,6-diamidino-2-phenylindole (Cat.No. F6057) (Sigma). Confocal microscopy was done on a Zeiss laser scanning confocal microscope (LSM 510; Carl Zeiss, Jena, Germany) as described previously. ImageJ was used to quantify fluorescence intensity in images of treated individual cells compared to untreated cells with and without Htt96Q-mCherry aggregates and to calculate Mander's coefficients for colocalization studies.

S1R in STHdh^Q7/7 cells [2] = test system: S1R in STHdh^Q7/7 cells
Procedure: as §1, §2, §3

[3] = test system: Htt96Q aggregates in S1R+/+ and S1R−/− HEK 293 cells; conditions: 24 h
Procedure: HEK 293 cells were grown on 60 mm plates and transfected for the expression of myc-Htt96Q. Cells were collected 24 hours post-transfection. After washing with 1×PBS cells were resuspended in 100 μl of 1×PBS+ protease inhibitor cocktail. Sonication was done in a sonic bath for 3×10 sec (amp5-6), leaving on ice for 30 sec between the sonications. Cell debris were removed by centrifugation at 16,000×g for 15 min and protein concentration was measured in the supernatant using the BCA method. Samples containing 50 μg total protein were taken and the volume adjusted to 100 μl with 1% SDS in PBS. After incubation for 5 min at 100° C. sample duplicates were loaded on the slots of a nitrocellulose membrane pre-wet with 1% SDS in PBS in a dot-blotting apparatus. Slots were washed twice with 1 ml 1% SDS in PBS and the membrane was transferred to 5% milk blocking solution. Immunoblotting was performed as described above.

[4] = test system: WT and YAC128 striatal neurons; conditions: 1 μM, 24 h
Procedure: To obtain pure cortical and striatal neurons, tissue was micro-dissected in HBSS supplemented with 0.3% fatty acid free BSA (Sigma-Aldrich, catalog no: A8806). Tissue from embryos with the same genotype were pooled and digested with 0.003% trypsin in HBSS, then mechanically digested. […] (Sigma-Aldrich, catalog no: T9128) was used to block the trypsin. […] Cultures were incubated at 37° C. with 5% CO2. After 3 days in vitro (DIV) half of the medium was replaced with fresh supplemented Neurobasal medium containing 5-fluoro-2′-deoxyuridine (5-FdU, 5 μM final concentration in the medium; Sigma-Aldrich, catalog no: F0503) to reduce dividing non-neuronal cells. At DIV 7 half of the medium was again replaced with fresh, and cells were used at DIV12.
The ultrathin sections were prepared using Leica Ultracut UCT (Leica, Vienna, Austria) and contrasted with uranyl acetate and lead citrate. […] All mitochondria of 6-7 different cells were snapped per condition and per independent experiment. Number of mitochondria-ER contacts sites (MERCS), MERCS length, ER and mitochondria profile areas, ER width and mitochondria aspect ratio (the ratio between the major and minor axes of mitochondria) were quantified. Number of MERCS per mitochondria was obtained by dividing number of MERCS per number of mitochondria profiles. Percentage of mitochondria surface covered by ER was measured by dividing the MERCS length by mitochondria perimeter and multiplying by 100. MERCS were considered when the distance between ER and mitochondria <40 nm.

[5] = test system: Nrf2/ARE genes (Nqo1, Hmox1, GCLc) in HD lymphoblasts; conditions: 5 μM, 24 h
Procedure: The qPCR was performed using the ABI Prism 7500 Sequence Detection System (Applied Biosystems). Each sample was run in triplicate. Gene expression was normalized to Rpl13a or UBC mRNA.

[6] = test system: S1R-silenced HD lymphoblasts; conditions: 5 μM, 24 h
Procedure: S1R depletion was induced by treating with S1R-directed siRNA duplexes (Origene, cat no: SR426072). siRNA transfection was performed in antibiotic-free growth medium using the Polyplus JETPRIME transfection protocol as per manufacturer's instructions (Polyplus). Forty-eight hours after transfection the cells were subjected to pridopidine treatment and/or oxidative stress challenge. S1R knockdown efficiency was determined by Immunoblot analysis.
TMRE assay: Primary neurons and lymphoblasts in suspension were cultured in 6-well plates.

[7] = test system: YAC128 cortical and striatal neurons; conditions: 24 h
Procedure: After basal reading for 10 minutes, neurons were stimulated with antimycin A (2 μM).

[8] = YAC128 striatal neurons, p<0.0001

Chain of S1R in STHdh^Q7/7 cells (Mus musculus, UniProt O55242) (O55242 whole entry): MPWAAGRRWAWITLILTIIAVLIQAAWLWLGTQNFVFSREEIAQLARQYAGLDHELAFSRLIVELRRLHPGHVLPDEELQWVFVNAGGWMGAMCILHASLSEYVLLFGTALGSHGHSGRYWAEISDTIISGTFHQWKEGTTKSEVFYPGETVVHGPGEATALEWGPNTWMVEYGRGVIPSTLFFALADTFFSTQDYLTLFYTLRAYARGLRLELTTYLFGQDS

CCCN1CCC(c2cccc(S(C)(=O)=O)c2)CC1 [Pridopidine, 4-[3-(methylsulfonyl)phenyl]-1-propyl-piperidine]
Triton-insoluble levels of endogenous S1R (S1R in STHdh^Q7/7 cells [1]): also those of the endogenous S1R | Triton-insoluble levels of S1R-YFP (S1R in STHdh^Q7/7 cells [2]; 20 h, starting 4 h post-transfection): increases the Triton-insoluble levels of S1R-YFP | increase of S1R-YFP levels above the levels in the untreated cells (S1R in STHdh^Q7/7 cells [2]; in the presence of Htt96Q-mCherry, dose-dependent, up to 150 μM, 20 h): up to 47% | pattern (subcellular localization) of S1R-YFP (S1R in STHdh^Q7/7 cells [2]; treatment for 20 h): does not change the pattern of S1R-YFP | increase of the amount of Htt96Q in SDS-insoluble aggregates ([3]; S1R+/+ cells): up to 35% | effect on Htt96Q in SDS-insoluble aggregates ([3]; S1R−/− cells): abolished | percent of mitochondrial surface in contact with ER ([4]; WT neurons, p=0.0339): significantly increases the percent of mitochondrial surface in contact with ER | proportion of elongated mitochondria (aspect ratio) ([4]; Y128 striatal neurons, p=0.0044): increases the proportion of elongated mitochondria in Y128 striatal neurons to WT levels | ER width ([4]; YAC128 neurons, p<0.0001): restores the abnormal ER width | number of MERCS per mitochondria [4, 8]: increasing the number of MERCS per mitochondria | percent of mitochondrial surface in contact with ER [4, 8]: increasing the number of MERCS per mitochondria and the percent of mitochondrial surface in contact with ER | GCLc expression (mRNA) [5]: shows a trend towards upregulation | expression of Nqo1 (mRNA) ([5]; p=0.0010): significantly upregulates | expression of Hmox1 (mRNA) ([5]; p=0.0308): significantly upregulates | mitochondrial membrane potential signal after H2O2 stimulation ([6]; S1R+/+ cells): increases TMRM signal after H2O2 stimulation | effect on mitochondrial membrane potential ([6]; absence of the S1R (silenced ~83%), p<0.0001): abolished | mito-H2O2 levels prompted by Ant A ([7]; YAC128 cortical neurons, 1 μM, p<0.0001): reverts the increased levels of mito-H2O2 prompted by Ant A | mito-H2O2 levels prompted by Ant A ([7]; YAC128 striatal neurons, 0.1 μM, p=0.0005): reverts the increased levels of mito-H2O2 prompted by Ant A | mito-H2O2 levels prompted by Ant A ([7]; YAC128 striatal neurons, 1 μM, p<0.0001): reverts the increased levels of mito-H2O2 prompted by Ant A

From patent publication US12685725B2, “Pridopidine for the treatment of mitochondrial-associated diseases and disorders and endoplasmic reticulum (ER) stress” (PRILENIA NEUROTHERAPEUTICS LTD., priority 2019, dated 2026)
